Measured values reported in patent US12459951B2, “Compounds that interact with RAS superfamily proteins for treatment of cancers, inflammatory diseases, rasopathies, and fibrotic disease” (SHY Therapeutics, LLC, priority 2022, dated 2025).
Where a name gives a salt, the structure may show the parent alone.

Assays:
Erk1/2 phosphorylation = experiment: Erk1/2 Phosphorylation Assay (western blot), Panc-1; format: cell-based, human; conditions: at 10 μM, * = activation
In short: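 KRas G12D Panc-1 cells were treated 6 h at 37° C with compound at 10 μM or serial dilutions for IC50 (0.3% DMSO). In method 1, cells were serum-starved overnight (0.5% FBS) and then given 1.5 ng/ml EGF for 15 min. In method 2, cells stayed in 10% FBS without stimulation. Lysate phospho-Erk1/2 (Thr202/Tyr204) was read by western blot.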

Rac-1 = molecular target: T1, Rac-1 (Homo sapiens, UniProt P63000); experiment: Ras GTP Binding Domain Inhibition Assay (Ras Superfamily Assay); conditions: read-out: Rac-1: % inh.
T1 construct: made in house
In short: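 His-tagged GTPases immobilised on nickel-coated plates, pre-incubated with compound (20 μM single point, or serial dilution for IC50) 3 h at room temperature, with or without 10-30 μg/mL Sos (residues 556-1049) in the final hour. Bound Cy3- or Cy5-GTP (100 nM, 45 min) measured by fluorescence after washing.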

Row | inhibition at 20 µM (Rac-1) [%] | SMILES | % inh of Erk1/2 phosphorylation in Panc-1 (Erk1/2 phosphorylation)
1 | 1 to 25 | CO[C@H]1CC[C@@H](Nc2nc(-c3nccn3C)nn3cc(-c4ccn(C(C)C)n4)c(C)c23)C1 (racemic) [Compound 1, rac 6-(1-Isopropyl-1H-pyrazol-3-yl)-N-((1R,3S)-3-methoxycyclopentyl)-5-methyl-2-(1-methyl-1H-imidazol-2-yl)pyrrolo[2,1-f][1,2,4]triazin-4-amine] | 0 (0% inhibition)
2 | 0 | COCC1CCN(c2nc(-c3nccn3C)nn3cc(-c4ccn(C(C)C)n4)c(C)c23)C1 (racemic) [Compound 2, rac 6-(1-Isopropyl-1H-pyrazol-3-yl)-4-(3-(methoxymethyl)pyrrolidin-1-yl)-5-methyl-2-(1-methyl-1H-imidazol-2-yl)pyrrolo[2,1-f][1,2,4]triazine] | B (26-49% inhibition)
3 | 1 to 25 | COC[C@@H]1CC[C@@H]1CNc1nc(-c2nccn2C)nn2cc(-c3ccn(C(C)C)n3)c(C)c12 (racemic) [Compound 3, rac 6-(1-Isopropyl-1H-pyrazol-3-yl)-N-(((1S,2R)-2-(methoxymethyl)cyclobutyl)methyl)-5-methyl-2-(1-methyl-1H-imidazol-2-yl)pyrrolo[2,1-f][1,2,4]triazin-4-amine] | D (85-100% inhibition)
4 | 1 to 25 | COC1CCCN(c2nc(-c3nccn3C)nn3cc(-c4ccn(C(C)C)n4)c(C)c23)C1 (racemic) [Compound 4, rac 6-(1-Isopropyl-1H-pyrazol-3-yl)-5-methyl-2-(1-methyl-1H-imidazol-2-yl)-4-(3-(oxo-γ6-methyl)piperidin-1-yl)pyrrolo[2,1-f][1,2,4]triazine] | D (85-100% inhibition)
5 | 0 | CO[C@H]1CC[C@@H](Nc2nc(-c3nccn3C)nn3cc(-c4ccn(C(C)C)n4)c(-c4ccccc4)c23)C1 (racemic) [Compound 18, rac 6-(1-Isopropyl-1H-pyrazol-3-yl)-N-((1R,3S)-3-methoxycyclopentyl)-2-(1-methyl-1H-imidazol-2-yl)-5-phenylpyrrolo[2,1-f][1,2,4]triazin-4-amine hydrochloride] | C (50-84% inhibition)
6 | 0 | COCC1CCN(c2nc(-c3nccn3C)nn3cc(-c4ccn(C(C)C)n4)c(-c4ccccc4)c23)C1.Cl (racemic) [Compound 19, rac 6-(1-Isopropyl-1H-pyrazol-3-yl)-4-(3-(methoxymethyl)pyrrolidin-1-yl)-2-(1-methyl-1H-imidazol-2-yl)-5-phenylpyrrolo[2,1-f][1,2,4]triazine hydrochloride salt] | 0 (0% inhibition)
7 | 0 | COC[C@@H]1CC[C@@H]1CNc1nc(-c2nccn2C)nn2cc(-c3ccn(C(C)C)n3)c(-c3ccccc3)c12 (racemic) [Compound 20, rac 6-(1-Isopropyl-1H-pyrazol-3-yl)-N-(((1S,2R)-2-(methoxymethyl)cyclobutyl)methyl)-2-(1-methyl-1H-imidazol-2-yl)-5-phenylpyrrolo[2,1-f][1,2,4]triazin-4-amine] | D (85-100% inhibition)
8 | 0 | COC1CCCN(c2nc(-c3nccn3C)nn3cc(-c4ccn(C(C)C)n4)c(-c4ccccc4)c23)C1 (racemic) [Compound 21, rac 6-(1-Isopropyl-1H-pyrazol-3-yl)-4-(3-methoxypiperidin-1-yl)-2-(1-methyl-1H-imidazol-2-yl)-5-phenylpyrrolo[2,1-f][1,2,4]triazine] | 0 (0% inhibition)
9 | 26 to 49 | COc1cccc(-c2cn3nc(-c4nccn4C)nc(N[C@@H]4CC[C@@H](OC)C4)c3c2-c2ccccc2)c1Cl.Cl (racemic) [Compound 34, rac 6-(2-Chloro-3-methoxyphenyl)-N-((1R,3R)-3-methoxycyclopentyl)-2-(1-methyl-1H-imidazol-2-yl)-5-phenylpyrrolo[2,1-f][1,2,4]triazin-4-amine hydrochloride] | D (85-100% inhibition)
10 | 26 to 49 | COc1cccc(-c2cn3nc(-c4nccn4C)nc(N[C@@H]4CC[C@@H](OC)C4)c3c2-c2ccccc2)c1C (racemic) [Compound 270, rac 6-(3-Methoxy-2-methylphenyl)-N-((1R,3R)-3-methoxycyclopentyl)-2-(1-methyl-1H-imidazol-2-yl)-5-phenylpyrrolo[2,1-f][1,2,4]triazin-4-amine] | D (85-100% inhibition)
11 | 26 to 49 | COc1cccc(-c2cn3nc(-c4nccn4C)nc(N[C@@H]4CC[C@H](OC)C4)c3c2-c2ccccc2)c1C (racemic) [Compound 271, rac 6-(3-Methoxy-2-methylphenyl)-N-((1R,3S)-3-methoxycyclopentyl)-2-(1-methyl-1H-imidazol-2-yl)-5-phenylpyrrolo[2,1-f][1,2,4]triazin-4-amine] | D (85-100% inhibition)
12 | 26 to 49 | COCCNc1nc(-c2nccn2C)nn2cc(-c3ccn(C(C)C)n3)c(C)c12 [Compound 5, 6-(1-Isopropyl-1H-pyrazol-3-yl)-N-(2-methoxyethyl)-5-methyl-2-(1-methyl-1H-imidazol-2-yl)pyrrolo[2,1-f][1,2,4]triazin-4-amine] | 0 (0% inhibition)
13 | 0 | COc1cccc(Nc2nc(-c3nccn3C)nn3cc(-c4ccn(C(C)C)n4)c(C)c23)n1 [Compound 7, 6-(1-Isopropyl-1H-pyrazol-3-yl)-N-(6-methoxypyridin-2-yl)-5-methyl-2-(1-methyl-1H-imidazol-2-yl)pyrrolo[2,1-f][1,2,4]triazin-4-amine] | 0 (0% inhibition)
14 | 50 to 75 | CC(C)n1ccc(-c2cn3nc(-c4nccn4C)nc(O)c3c2-c2ccccc2)n1 [Compound 17, 6-(1-Isopropyl-1H-pyrazol-3-yl)-2-(1-methyl-1H-imidazol-2-yl)-5-phenylpyrrolo[2,1-f][1,2,4]triazin-4-ol] | A (1-25% inhibition)
15 | 26 to 49 | COc1cc(Nc2nc(-c3nccn3C)nn3cc(-c4ccn(C(C)C)n4)c(-c4ccccc4)c23)ncn1 [Compound 22, 6-(1-Isopropyl-1H-pyrazol-3-yl)-N-(6-methoxypyrimidin-4-yl)-2-(1-methyl-1H-imidazol-2-yl)-5-phenylpyrrolo[2,1-f][1,2,4]triazin-4-amine] | 0 (0% inhibition)
16 | 0 | Cc1ccn2nc(-c3nccn3C)nc(N)c12.O=C(O)C(F)(F)F [Compound 37, 5-Methyl-2-(1-methyl-1H-imidazol-2-yl)pyrrolo[2,1-f][1,2,4]triazin-4-amine trifluoroacetic acid salt] | 0 (0% inhibition)
17 | 0 | Cn1ccnc1-c1nc(O)c2c(-c3ccccc3)ccn2n1 [Compound 39, 2-(1-Methyl-1H-imidazol-2-yl)-5-phenylpyrrolo[2,1-f][1,2,4]triazin-4-ol] | 0 (0% inhibition)
18 | 26 to 49 | Cc1c(-c2ccn(C(C)C)n2)cn2nc(-c3nccn3C)nc(Nc3noc(C4CC4)n3)c12 [Compound 75, 5-Cyclopropyl-N-(6-(1-isopropyl-1H-pyrazol-3-yl)-5-methyl-2-(1-methyl-1H-imidazol-2-yl)pyrrolo[2,1-f][1,2,4]triazin-4-yl)-1,2,4-oxadiazol-3-amine] | B (26-49% inhibition)
19 | 50 to 75 | CCc1nc(Nc2nc(-c3nccn3C)nn3cc(-c4ccn(C(C)C)n4)c(C)c23)nn1C [Compound 76, N-(5-Ethyl-1-methyl-1H-1,2,4-triazol-3-yl)-6-(1-isopropyl-1H-pyrazol-3-yl)-5-methyl-2-(1-methyl-1H-imidazol-2-yl)pyrrolo[2,1-f][1,2,4]triazin-4-amine] | 0 (0% inhibition)
20 | 76 to 100 | Cc1c(-c2ccn(C(C)C)n2)cn2nc(-c3nccn3C)nc(Nc3cnn(C(C)C)n3)c12 [Compound 77, 6-(1-Isopropyl-1H-pyrazol-3-yl)-N-(2-isopropyl-2H-1,2,3-triazol-4-yl)-5-methyl-2-(1-methyl-1H-imidazol-2-yl)pyrrolo[2,1-f][1,2,4]triazin-4-amine] | D* (85-100% activation)
21 | 76 to 100 | Cc1c(-c2ccn(C(C)C)n2)cn2nc(-c3nccn3C)nc(Nc3cn(C(C)C)nn3)c12 [Compound 78, N-(1-Isopropyl-1H-1,2,3-triazol-4-yl)-6-(1-isopropyl-1H-pyrazol-3-yl)-5-methyl-2-(1-methyl-1H-imidazol-2-yl)pyrrolo[2,1-f][1,2,4]triazin-4-amine] | D* (85-100% activation)
22 | 76 to 100 | COCc1csc(Nc2nc(-c3nccn3C)nn3cc(-c4ccn(C(C)C)n4)c(C)c23)n1 [Compound 79, N-(6-(1-Isopropyl-1H-pyrazol-3-yl)-5-methyl-2-(1-methyl-1H-imidazol-2-yl)pyrrolo[2,1-f][1,2,4]triazin-4-yl)-4-(methoxymethyl)thiazol-2-amine] | D* (85-100% activation)
23 | 1 to 25 | COc1ncc(Nc2nc(-c3nccn3C)nn3cc(-c4ccn(C(C)C)n4)c(C)c23)cn1 [Compound 80, 6-(1-Isopropyl-1H-pyrazol-3-yl)-N-(2-methoxypyrimidin-5-yl)-5-methyl-2-(1-methyl-1H-imidazol-2-yl)pyrrolo[2,1-f][1,2,4]triazin-4-amine] | D* (85-100% activation)
